Measurements as given in US20090169538A1, “Methods of Treating or Preventing Tissue Damage Caused by Increased Blood Flow” (REGENERX BIOPHARMACEUTICALS, INC., priority 2006, published 2009).

How the values were obtained:
[1] = test system: primary rat neonatal cardiomyocytes; assay: primary neonatal cardiomyocytes cultured on laminin-coated glass; assay type: cell-based
Experimental: To test the response of post-natal cardiomyocytes, primary rat neonatal cardiomyocytes were cultured on laminin-coated glass and treated the cells with phosphate buffered saline (PBS) or thymosin β4. […] In addition to thymosin β4's effects on myocardial cell migration, a similar effect was observed on endothelial migration in the embryonic heart explant assay.
Primary culture of neonatal cardiomyocytes typically survived for approximately one to two weeks with some cells beating up to two weeks when grown on laminin-coated slides in our laboratory. […] In addition, the rate of beating was consistently faster in thymosin β4-treated neonatal cardiomyocytes (95 vs. 50 beats per minute, p<0.02), indicating either a change in cell-cell communication or more vigorous cardiomyocytes.

PINCH = molecular target: T1, PINCH (Mus musculus, UniProt Q99JW4); assay: phage display ELISA confirmation and coimmunoprecipitation with PINCH; assay type: binding
T1 construct: myc or FLAG (co-immunoprecipitation only); made in house; host or cells: T7 phage amplified in E. coli BLT5615 (ELISA); Cos and 10T1/2 cells transfected (co-IP)
T1 sequence (Q99JW4 whole entry): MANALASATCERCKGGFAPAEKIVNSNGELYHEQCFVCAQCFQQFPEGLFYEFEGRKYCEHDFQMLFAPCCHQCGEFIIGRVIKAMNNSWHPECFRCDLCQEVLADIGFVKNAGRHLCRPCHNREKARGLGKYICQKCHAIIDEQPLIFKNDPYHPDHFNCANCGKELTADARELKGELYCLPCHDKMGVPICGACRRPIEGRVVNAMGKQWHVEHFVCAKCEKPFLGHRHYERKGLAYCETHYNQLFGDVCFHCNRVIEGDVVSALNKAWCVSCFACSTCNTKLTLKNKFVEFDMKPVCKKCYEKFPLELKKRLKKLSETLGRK
Description: To investigate the potential mechanisms through which thymosin β4 might be influencing cell migration and survival events, thymosin β4 interacting proteins were searched. The amino-terminus of […] was fused with affi-gel beads resulting in exposure of the carboxy-terminus that allowed identification of previously unknown interacting proteins but prohibited association with actin. An E9.5-12.5 mouse heart T7 phage cDNA library was synthesized and screened by phage display and thymosin β4-interacting clones were enriched and confirmed by ELISA. PINCH, a LIM domain protein, was most consistently isolated in this screen and interacted with thymosin β4 in the absence of actin (ELISA). PINCH and integrin linked kinase (ILK) interact directly with one another and indirectly with the actin cytoskeleton as part of a larger complex involved in cell-extracellular matrix interactions known as the focal adhesion complex. PINCH and ILK are required for cell motility and for cell survival, in part by promoting phosphorylation of the serine-threonine kinase Akt/protein kinase B, a central kinase in survival and growth signaling pathways. […] The PINCH interaction with thymosin β4 mapped to the fourth and fifth LIM domains of PINCH while the amino terminal ankryin domain of ILK was sufficient for thymosin β4 interaction. […]

ILK and Akt = assay: western blot of heart lysates after coronary ligation; assay type: in vivo, mice
Experimental: Because thymosin β4 upregulates ILK activity and Akt phosphorylation in cultured cells, the effects on these kinases in vivo were tested. […] Total Akt protein was not increased.
Myocardial infarction was produced in fifty-eight male C57BL/6J mice at 16 weeks of age (25-30 g) by ligation of the left anterior descending coronary artery as previously described. Twenty-nine of the ligated mice received thymosin β4 treatment immediately following ligation and the remaining twenty-nine received PBS injections. Treatment was given intracardiac with thymosin β4 (200 ng in 10 ul collagen) or with 10 ul of collagen; intraperitoneally with thymosin β4 (150 μg in 300 μl PBS) or with […]; or by both intracardiac and intraperitoneal injections. Intraperitoneal injections were given every three days until mice were sacrificed. Doses were based on previous studies of thymosin β4 biodistribution. Hearts were removed, weighed and fixed for histologic sectioning. Additional mice were operated on in a similar fashion for studies 0.5, 1, 3, 6 and 11 days after ligation.

What does the source list for thymosin β4?
migrational distance of neonatal cardiomyocytes ([1]; compared to PBS control, p<0.05): significantly increased; survival, rhythmically contracting myocytes visible ([1]; laminin-coated slides, untreated cultures approximately one to two weeks): up to 28 days; rate of beating ([1]; vs. 50 in control, p<0.02): 95 beats per minute; interaction with PINCH in the absence of actin (ELISA) (PINCH; phage display clones, ELISA): interacted; co-precipitation with PINCH (PINCH; plasmids transfected in cultured cells): co-precipitated; total Akt protein (ILK and Akt): not increased; level of ILK protein in heart lysates (ILK and Akt; compared with PBS treated mice): increased; amount of phosphorylated Akt-5473 (ILK and Akt; phospho-specific antibodies): elevation
